Reference: US20260159519A1, “IMIDAZOPYRIDAZINE SUBSTITUTED BENZENE RING DERIVATIVE, PREPARATION METHOD, PHARMACEUTICAL COMPOSITION AND USE” (SHANGHAI SIMR BIOTECHNOLOGY CO., LTD., priority 2022, published 2026)

Legend:
[1] = biological target: T1, human α2-GABAA receptor (BZD site, membrane protein of HEK293 cells) (Homo sapiens, UniProt P18507+P47869); test: Radioligand competitive binding assay (3H-flunitrazepam) at the BZD site of the α2-GABAA receptor; settings: competition with 1 nM 3H-flunitrazepam; Ki calculated from IC50; read-out: α2 Ki
T1 construct: expressed in transfected cells
Excerpt: (§1) α subunit, β subunit, and γ subunit are essential for the formation of a complete and functional GABAA receptor. In this example of the present disclosure, HEK293 cells stably expressing the human α1-GABAA receptor (α1-GABAAR) and α2-GABAA receptor (α2-GABAAR) were constructed and separately selected using the lipofection method (Felgner, P. L., et al. Proceedings of the National Academy of Sciences, 1987, 84: 7413-7417). The α1-GABAAR-HEK293 cell model simultaneously expressed the α1 subunit (for protein sequence, see GenBank accession No.: NM_000806.5), the […] (for protein sequence, see GenBank accession No.: NM_000814.5), and the […] (for protein sequence, see GenBank accession No.: NM_000816.3). The α2-GABAAR-HEK293 cell model simultaneously expressed the α2 subunit (for protein sequence, see GenBank accession No.: NM_000807.4), the β3 subunit (for protein sequence, see GenBank accession No.: NM_000814.5), and the γ2 subunit (for protein sequence, see GenBank accession No.: NM_000816.3).
(§2) The above cell lines were subcultured. The α2-GABAAR-HEK293 cells were expanded for testing the affinity of compounds to the benzodiazepine (BZD) site of the GABAA receptor. During the passage process, some of the α1-GABAAR-HEK293 cells and α2-GABAAR-HEK293 cells were suspended and plated on a slide pre-treated with Poly-D-Lysine for electrophysiological testing (method referenced from patent CN107344936A, paragraph 0586).
The affinity of the compounds for the α2-GABAA receptor was determined by competing for the binding of ^3H-flunitrazepam (isotope ^3H-labelled flunitrazepam) to the BZD site on the membrane protein of HEK293 cells stably expressing the human α2-GABAAR.
Membrane preparation: Cells were suspended in 50 mM Tris-HCl buffer (pH=7.4), homogenized 10 times for 20 seconds with a homogenizer on ice, and centrifuged at 1000 g for 10 minutes at 4° C. The supernatant was taken, and the above steps were repeated. The supernatant was centrifuged at 4° C. (33800 g; Thermo, rotor: A27-8×50) for 60 minutes. The precipitate was resuspended in Tris buffer (50 mM Tris-HCl, 10 mM MgCl2, 0.5 mM EDTA, and 10% glycerol). The protein content was determined (BCA (bicinchoninic acid) protein quantification assay based on copper ion reduction, with a BCA kit purchased from Pierce (Annoron (Beijing) Biotechnology Co., Ltd.)), and 1 mL aliquots were prepared and stored at −80° C.
Radioligand competitive binding assay: This assay was performed in a 200 μL system (96-well plate) containing 100 μL of cell membrane. The concentration of ^3H-flunitrazepam was 1 nM, and the concentrations of the test compounds were in the range of […]. Flumazenil was used as a control. 1 μL of 2 mM flumazenil (final […]) was added to each low signal control (low control, LC) well, and 1 μL of dimethyl sulfoxide was added to each high signal control (high control, HC) well. The final concentration of target membrane protein was […]. All sample stock solutions of test compounds were 10 mM dimethyl sulfoxide solutions. All the samples were diluted to a concentration of 0.2 mM with dimethyl sulfoxide, and then subjected to a 4-fold serial dilution for a total of 8 working concentration gradients. The 96-well plate was sealed with a sealing membrane and then incubated on a shaker at room temperature for 1 hour. Meanwhile, a GF/C filter plate was soaked in plate soaking buffer (0.3% PEI (polyethyleneimine, purchased from Sigma-Aldrich, model: P314), stored at 4° C.) for at least 0.5 hours. After the binding incubation was completed, the cells were harvested onto the GF/C filter plate using a cell harvester and washed four times with plate washing buffer (50 mM Tris-HCl, pH 7.4, stored at 4° C.). After drying in an oven at 50° C. for 1 hour, the dried GF/C filter plate was bottom-sealed. The residual radioactivity on the filter membrane was detected by liquid scintillation counting.

[2] = biological target: T2, human α1-GABAA receptor (α1-GABAAR-HEK293 cells) (Homo sapiens, UniProt P14867+P18507); test: Whole-cell patch-clamp electrophysiology, positive allosteric modulatory activity on α1-GABAA receptor; assay type: cell-based; settings: read-out: α1-GABAA positive allosteric modulatory activity
T2 construct: expressed in transfected cells
Excerpt: as §1, §2
(§3) The positive regulatory activity of the test drugs on the α1-GABAA receptor and the α2-GABAA receptor was detected by the electrophysiological method. The specific method was as follows:
(§4) Compound concentration setting: The final concentration of the compounds used for screening was 100 nM. For cell lines expressing the α1-GABAA receptor, the concentration of GABA was 0.05 to 0.07 μM (approximately EC2-4). For cell lines expressing the α2-GABAA receptor, the concentration of GABA was 0.10 to 0.11 μM (approximately EC7-8). Electrophysiological testing was performed using the whole-cell patch-clamp technique, which can refer to the method reported in the literature (Nickolls, S. A., et al. British Journal of Pharmacology, 2018, 175: 708-725). The composition of the extracellular solution (ECS) for electrophysiology was as follows: 150 mM NaCl, 5 mM KCl, 2.5 mM CaCl2, 1 mM MgCl2, 10 mM HEPES, and 10 mM glucose (pH 7.4). The formulation of the intracellular solution (ICS) for electrophysiology was as follows: 140 mM CsCl, 11 mM EGTA, 10 mM HEPES, 2 mM CaCl2, 1 mM MgCl2, 4 mM MgATP, and 2 mM TEA (pH 7.3). GABA (γ-aminobutyric acid) powder was prepared into a mother liquor with pure water, which was then diluted in ECS. The compound was first prepared into a 4 mM mother liquor with dimethyl sulfoxide, which was then gradually diluted in the corresponding concentration of GABA-ECS. The solutions were freshly prepared prior to electrophysiological testing.
(§5) Electrophysiological signal acquisition was performed using an EPC 10 amplifier and PatchMaster software (HEKA) or an Axon 700B amplifier and Clampex software (AXON). The recording electrode was made through a drawing process using borosilicate glass, with an electrode resistance of 4 to 6 MΩ. Extracellular administration was performed using the ALA-VC-8PG™ system. A single, independently growing cell was selected. After the glass electrode formed a good seal with the cell, the membrane was ruptured to form the whole-cell configuration. The cell membrane potential was clamped at −60 mV and recorded in Gap-free mode. During the test, the extracellular solution was first applied extracellularly for approximately 20 seconds. After the baseline (Iprebaseline) stabilized, the extracellular solution was switched to GABA-ECS. At this point, the current induced by GABA (Igaba) could be detected. After approximately 10 to 20 seconds, when the current stabilized, the extracellular solution was switched to a mixture of the compound and GABA-ECS. […]

[3] = biological target: T3, human α2-GABAA receptor (α2-GABAAR-HEK293 cells) (Homo sapiens, UniProt P18507+P47869); test: Whole-cell patch-clamp electrophysiology, positive allosteric modulatory activity on α2-GABAA receptor; assay type: cell-based; settings: read-out: α2-GABAA positive allosteric modulatory activity
T3 construct: expressed in transfected cells
Excerpt: as §1, §2, §3, §4, §5

Row | Ki [1] [nM] | activation at 0.1 µM [2] [%] | activation at 0.1 µM [3] [%] | Compound
1 | 7.73 | 80 | 134 | COc1cc2c(cc1-c1cc(-c3cnnc4c3ncn4C(C)C)ccc1F)oc(=O)n2C [Example 35, 6-(2-Fluoro-5-(7-isopropyl-7H-imidazo[4,5-c]pyridazin-4-yl)phenyl)-5-methoxy-3-methylbenzo[d]oxazol-2(3H)-one]
2 | 9.16 | 58 | 94 | COc1cc2nn(C)cc2cc1-c1cc(-c2cnnc3c2ncn3C(C)C)ccc1F [Example 49, 4-(4-Fluoro-3-(6-methoxy-2-methyl-2H-indazol-5-yl)phenyl)-7-isopropyl-7H-imidazo[4,5-c]pyridazine]
3 | 3.44 | 14 | 90 | CCn1cnc2c(-c3ccc(F)c(-c4cc5oc(=O)n(C6CC6)c5cc4OC)c3)cnnc21 [Example 51, 3-Cyclopropyl-6-(5-(7-ethyl-7H-imidazo[4,5-c]pyridazin-4-yl)-2-fluorophenyl)-5-methoxybenzo[d]oxazol-2(3H)-one]
4 | 3.78 | 21 | 94 | CCn1cnc2c(-c3ccc(F)c(-c4cc5sc(=O)n(C)c5cc4OC)c3)cnnc21 [Example 53, 6-(5-(7-Ethyl-7H-imidazo[4,5-c]pyridazin-4-yl)-2-fluorophenyl)-5-methoxy-3-methylbenzo[d]thiazol-2(3H)-one]
5 | 2.43 | 21 | 81 | CCn1cnc2c(-c3ccc(F)c(-c4cc5ccc(=O)n(C)c5cc4OC)c3)cnnc21 [Example 55, 6-(5-(7-Ethyl-7H-imidazo[4,5-c]pyridazin-4-yl)-2-fluorophenyl)-7-methoxy-1-methylquinolin-2(1H)-one]
6 | 0.5 | -27 | 90 | CCn1cnc2c(-c3ccc(F)c(-c4ccc5c(nnn5C5CC5)c4OC)c3)cnnc21 [Example 70, 4-(3-(1-Cyclopropyl-4-methoxy-1H-benzo[d][1,2,3]triazol-5-yl)-4-fluorophenyl)-7-ethyl-7H-imidazo[4,5-c]pyridazine]
7 | 6.99 | 9 | 104 | CCn1cnc2c(-c3ccc(F)c(-c4cc5cn(C6CCN(C)CC6(F)F)nc5cc4OC)c3)cnnc21 (stereo not drawn) [Example 74, 4-(3-(2-(3,3-Difluoro-1-methylpiperidin-4-yl)-6-methoxy-2H-indazol-5-yl)-4-fluorophenyl)-7-ethyl-7H-imidazo[4,5-c]pyridazine]
8 | 2.43 | 61 | 107 | CCn1cnc2c(-c3ccc(F)c(-c4cc5cn(C6CCN(C)CC6F)nc5cc4OC)c3)cnnc21 (stereo not drawn) [Example 76, 7-Ethyl-4-(4-fluoro-3-(2-(3-fluoro-1-methylpiperidin-4-yl)-6-methoxy-2H-indazol-5-yl)phenyl)-7H-[4,5-c]pyridazine]
9 | 1.13 | 66 | 104 | CCn1cnc2c(-c3ccc(F)c(-c4cc5cn(C6CCN(C7COC7)CC6)nc5cc4OC)c3)cnnc21 [Example 77, 7-Ethyl-4-(4-fluoro-3-(6-methoxy-2-(1-(oxetan-3-yl)piperidin-4-yl)-2H-indazol-5-yl)phenyl)-7H-imidazo[4,5-c]pyridazine]
10 | 3.91 | 10 | 110 | CCn1cnc2c(-c3ccc(F)c(-c4cc5cn(-c6nccn6C)nc5cc4OC)c3)cnnc21 [Example 78, 7-Ethyl-4-(4-fluoro-3-(6-methoxy-2-(1-methyl-1H-imidazol-2-yl)-2H-indazol-5-yl)phenyl)-7H-imidazo[4,5-c]pyridazine]
11 | 2.34 | -25 | 83 | CCn1cnc2c(-c3ccc(F)c(-c4ccc5c(nnn5C)c4OC)c3)cnnc21 [Example 81, 7-Ethyl-4-(4-fluoro-3-(4-methoxy-1-methyl-1H-benzo[d][1,2,3]triazol-5-yl)phenyl)-7H-imidazo[4,5-c]pyridazine]
